# Source: patent US7390870B2, “Immune-enhancing peptides” (Posco, priority 2001, dated 2008)
# What was measured:
# monocytes [1] = experiment: Effect of enzyme inhibitors on peptide-induced monocyte chemotaxis; assay type: cell-based, human; details: FIG. 10; for inhibition of MFYLPM-induced chemotaxis: 1 μM MFYLPM
# Description: (§1) Chemotaxis assays of the peptide were performed using multiwell chambers (Neuroprobe Inc., Gaithersburg, Md.) (20). Briefly, the prepared isolated human monocytes were suspended in RPMI at a concentration of 1×10^6 cells/ml of serum-free RPMI, and 25 □ of the suspension were placed onto the upper well of a 96-well chemotaxis chamber that was separated by a […] filter with a 5 □ pore size (3 □ diameter pores not coated with polyvinylpyrrolidone for neutrophils) from peptides or an fMLF-containing lower well. After incubation for 2 hours (90 minutes for neutrophils) at 37° C., non-migrated cells were removed by scraping them out, and cells that migrated across the filter were dehydrated, fixed, and stained with hematoxylin (Sigma, St. Louis, Mo.). The stained cells in five randomly chosen high power fields (HPF) (400×) in that well were then counted (21). The numbers of migrated cells were determined by counting them in a high power field (400×). For a checkboard analysis, cells were re-suspended in RPMI containing various concentrations of the peptide just before transferring them to the upper wells as described before (22).
# Monocytes were pretreated either with LY (LY294002, 50 μM), GFX (GF109203X, 5 μM), or PD (PD98059, 50 μM), or they remained untreated for the control After an incubation of the indicated periods (15 minutes for LY294002 and GF109203X, 60 minutes for PD98059), the cells were washed twice and used for chemotaxis assay. 25 □ of monocytes at 1×10^6 cells/ml were added to the upper wells and allowed to migrate for 2 hrs at 37° C. (humidified atmosphere; 5% CO2) toward each peptide (1 μM HFYLPM, 1 μM MFYLPM, or 10 nM HFYLPm) or medium. After fixing and staining of the membrane, the numbers of migrated cells were determined by counting them in a high power field (400×). The results are shown FIG. 10. The data are presented as means ±S.E. of three independent experiments each performed in duplicate. *P<0.01 versus medium treatment and †P<0.01 versus peptide treatment, respectively.
# monocytes [2] = experiment: Effect of PTX on peptide-induced chemotactic migration in monocytes; assay type: cell-based, human; details: FIG. 8, PTX preincubation 90 minutes
# Description: as §1
# Several extracellular signals including many chemoattractants activate phagocytic cells via pertussis toxin (PTX)-sensitive G-protein(s) (27-29). Therefore, the involvement of PTX-sensitive G-protein(s) on the peptide-induced monocyte activation was examined. Monocytes were preincubated with PTX (1 □/ml) or vehicle only for 90 minutes at 37° C. The cells were used for chemotaxis assay with HFYLPM (1 μM), MFYLPM (1 μM), HFYLPm (100 nM), and fMLF (100 nM). The numbers of migrated cells were determined by counting them in a high power field (400×). The results are illustrated in FIG. 8. The data of FIG. 8 are presented as means±S.E. of two independent experiments each performed in duplicate. *P<0.01 versus medium treatment and †P<0.01 versus peptide treatment, respectively.
# [3] = LY294002 50 μM, GF109203X 5 μM, PD98059 50 μM, 10 nM HFYLPm
# [4] = LY294002 50 μM, GF109203X 5 μM, PD98059 50 μM
Molecule,inhibition of HFYLPm-induced chemotaxis (monocytes [1]; [3]),inhibition of MFYLPM-induced chemotaxis (monocytes [1]; [4]),"inhibition at 50 µM (monocytes [1]; Homo sapiens, Monocyte, LY294002 50 μM, GF109203X 5 μM, 15 minutes pretreatment, 1 μM HFYLPM)","inhibition of HFYLPm-induced chemotaxis (monocytes [1]; PD98059 50 μM, 60 minutes pretreatment, 1 μM HFYLPM)","inhibition of HFYLPm-induced chemotaxis (monocytes [1]; LY294002 50 μM, GF109203X 5 μM, 15 minutes pretreatment, 1 μM HFYLPM)",inhibition of HFYLPm-induced monocyte chemotaxis (monocytes [2]; HFYLPM 1 μM),inhibition of HFYLPm-induced monocyte chemotaxis (monocytes [2]; HFYLPm 100 nM),inhibition of MFYLPM-induced monocyte chemotaxis (monocytes [2]; MFYLPM 1 μM),inhibition of fMLF-induced monocyte chemotaxis (monocytes [2]; fMLF 100 nM)
O=c1cc(N2CCOCC2)oc2c(-c3ccccc3)cccc12 [LY294002],no effect,no effect,~75%,–,–,–,–,–,–
COc1cccc(-c2cc(=O)c3ccccc3o2)c1N [PD98059],almost complete inhibition,almost complete inhibition,–,almost complete inhibition,–,–,–,–,–
CN(C)CCCn1cc(C2=C(c3c[nH]c4ccccc34)C(=O)NC2=O)c2ccccc21 [GF109203X],no effect,no effect,–,–,~50%,–,–,–,–
pertussis toxin [PTX],–,–,–,–,–,complete inhibition,complete inhibition,complete inhibition,completely blocked
